Experimental findings from patent US20250122192A1, “5-PYRIMIDINECARBOXAMIDE DERIVATIVES AND METHODS OF USING THE SAME” (Rgenta Therapeutics, Inc., priority 2021, published 2025) are described below.

Molecules are shown by their SMILES. Structures can show the parent of a compound that is named as a salt.

For one experiment, the system named is PMS1. The experiment is described as follows: Mini-gene reporter assay-PMS1. It counts as cell-based. Conditions: Homo sapiens, HEK293, PMS1 mini-gene firefly luciferase reporter transiently transfected into HEK293 cells; read-out: PMS1 IC50. An excerpt: Biological Activity of the Compounds of the Present Disclosure Mini-gene reporter assay-PMS1
Mini-gene reporter constructs for each target site can be constructed by first PCR amplifying the region-of-interest including the sequence of the alternatively skipped, sequences of the immediate upstream and downstream introns, and sequences of the immediate upstream and downstream exons. Then the 3′end of the amplified sequence can be ligated to a firefly luciferase reporter gene and cloned into the pcDNA3.1 vector backbone. The final reporter construct can be transiently transfected into HEK293 cells using Lipofectamine 3000 transfection reagents. Compounds that can induce the inclusion of the skipped exon in the reporter construct would increase the reporter firefly luciferase activity.
Test compounds may be diluted in duplicates and dispensed into an assay plate. Transient mini-gene reporter cell line stock is resuspended and dispensed into the assay plate. Assay plates are then centrifuged and incubated. A luciferase reagent (e.g. ONE-Glo firefly luciferase reagent from Promega®) may be added to the assay plate and the luminescence (RLU) signals recorded. PMS1 EC50 values may be determined by curve fitting in Levenberg-Marquardt algorithm.
(In general: A reporter such as luciferase makes a cellular process visible.)
On to `CCOc1nc(N2CCNCC2)ncc1C(=O)Nc1ccc2nn(C)cc2c1` [Compound 25, 4-ethoxy-N-(2-methyl-2H-indazol-5-yl)-2-(piperazin-1-yl)pyrimidine-5-carboxamide], for which the half-maximal inhibitory concentration (IC50) is 1000 to 3000 nM.
With `CCOc1nc(N2CCOC3(CCNCC3)C2)ncc1C(=O)Nc1cc(F)c2nc(C)cn2c1` [Compound 223], the IC50 was > 3000 nM.
Turning to `CCOc1nc(N2CCNC(CC)C2)ncc1C(=O)Nc1cc(F)c2nc(C)cn2c1` (stereo not shown) [Compound 11, 4-ethoxy-2-(3-ethylpiperazin-1-yl)-N-{8-fluoro-2-methylimidazo[1,2-a]pyridin-6-yl}pyrimidine-5-carboxamide], the IC50 is < 500 nM.
Still for that read-out and setting: as for `CCOc1nc(N2CCC(C3CCCN3)C2)ncc1C(=O)Nc1cn2cc(C)nc2c(C)n1` (stereo not shown) [Compound 38], the figure is 1000 to 3000 nM; as for `CCOc1nc(N2CCNC3CCCCC32)ncc1C(=O)Nc1cn2cc(C)nc2c(C)n1` (stereo not shown) [Compound 23], > 3000 nM; as for `CCOc1nc(N2CC3(CCNCC3)[C@H]3COC[C@H]32)ncc1C(=O)Nc1cc(F)c2nc(C)cn2c1` (racemic) [Compound 124], > 3000 nM.
In the case of `CCOc1nc(N2CC(C3CCCCCN3)C2)ncc1C(=O)Nc1cn2cc(C)nc2c(C)n1` (stereo not shown) [Compound 59], the half-inhibitory concentration (IC50) was < 500 nM.
On the same count and under the same terms, under `CCOc1nc(N2CCNCCC2C)ncc1C(=O)Nc1cn2cc(C)nc2c(C)n1` (stereo not shown) [Compound 40] stands 1000 to 3000 nM.
Turning to `CCOc1nc(N2CCC3CCNCC32)ncc1C(=O)Nc1cc(F)c2nc(C)cn2c1` (stereo not shown) [Compound 201], the IC50 was < 500 nM.
On to `CCOc1nc(N2CC3(CCNCC3)C2)ncc1C(=O)Nc1cc(F)c2nc(C)cn2c1` [Compound 239], for which the IC50 is < 500 nM.
On to `CCOc1nc(N2CCCCC(C3CNC3)C2)ncc1C(=O)Nc1cc(F)c2nc(C)cn2c1` (stereo not shown) [Compound 150], for which the IC50 lay within 1000 to 3000 nM.
As for `COc1nc(NC2CCNCC2)ncc1C(=O)Nc1cn2cc(C)nc2c(C)n1` [Compound 266, N-(2,8-dimethylimidazo[1,2-a]pyrazin-6-yl)-4-methoxy-2-(piperidin-4-ylamino) pyrimidine-5-carboxamide formic acid], the IC50 was in the range of 1000 to 3000 nM.
Take `CCOc1nc(N(C)C2CC3CCC(C2)N3)ncc1C(=O)Nc1cn2cc(C)nc2c(C)n1` (stereo not shown) [Compound 37]: the 50% inhibitory concentration (IC50) is < 500 nM.
With `CCOc1nc(N2CC3CNCC3C2)ncc1C(=O)Nc1cn2cc(C)nc2cn1` (stereo not shown) [Compound 28, 4-ethoxy-N-{2-methylimidazo[1,2-a]pyrazin-6-yl}-2-{octahydropyrrolo[3,4-c]pyrrol-2-yl}pyrimidine-5-carboxamide], the half-inhibitory concentration (IC50) was 1000 to 3000 nM.
Regarding `CCOc1nc(N2CCN(C3CNC3)CC2)ncc1C(=O)Nc1cc(F)c2nc(C)cn2c1` [Compound 221], the IC50 fell in the range of 1000 to 3000 nM.
For the compound `CCOc1nc(N2CC3(CCNCC3)CC2C)ncc1C(=O)Nc1cc(F)c2nc(C)cn2c1` (stereo not shown) [Compound 152], the IC50 was 500 to 1000 nM.
For `CCOc1nc(N2CC(C)NCC2C)ncc1C(=O)Nc1cc(F)c2nc(C)cn2c1` (stereo not shown) [Compound 230], the IC50 was < 500 nM.
Turning to `CCOc1nc(N2CCC(C3CCCN3)C2)ncc1C(=O)Nc1cc(F)c2nc(C)cn2c1` (stereo not shown) [Compound 120], the IC50 was < 500 nM.
As to `CCOc1nc(N2CC3(CNC3)C2)ncc1C(=O)Nc1cc(F)c2nc(C)cn2c1` [Compound 206], the half-maximal inhibitory concentration (IC50) was < 500 nM.
As for `CCOc1nc(N2CCC(N3CCNCC3)CC2)ncc1C(=O)Nc1cc(F)c2nc(C)cn2c1` [Compound 222], the IC50 was 1000 to 3000 nM.
Turning to `CCOc1nc(N2CCC3(CCCNC3)C2)ncc1C(=O)Nc1cn2cc(C)nc2c(C)n1` (stereo not shown) [Compound 106], the IC50 was > 3000 nM.
Consider `CCOc1nc(N2CC3(CCNCC3)C2)ncc1C(=O)Nc1cn2cc(C)nc2c(C)n1` [Compound 17], for which the IC50 is < 500 nM.
Turning to `CCOc1nc(N2CCNCC(CO)C2)ncc1C(=O)Nc1cc(F)c2nc(C)cn2c1` (stereo not shown) [Compound 109], the IC50 is 1000 to 3000 nM.
As for `CCOc1nc(N2CCC[C@H]3NCC[C@H]32)ncc1C(=O)Nc1cc(F)c2nc(C)cn2c1` (racemic) [Compound 178], the half-maximal inhibitory concentration (IC50) was < 500 nM.
`CCOc1nc(N2CCCNCC2)ncc1C(=O)Nc1cc(F)c2nc(C)cn2c1` [Compound 15, 2-(1,4-diazepan-1-yl)-4-ethoxy-N-{8-fluoro-2-methylimidazo[1,2-a]pyridin-6-yl}pyrimidine-5-carboxamide]: the half-inhibitory concentration (IC50) is < 500 nM.
In the case of `CCOc1nc(N2CCNC(C)(C)C2)ncc1C(=O)Nc1cn2cc(C)nc2cn1` [Compound 10, 2-(3,3-dimethylpiperazin-1-yl)-4-ethoxy-N-{2-methylimidazo[1,2-a]pyrazin-6-yl}pyrimidine-5-carboxamide], the half-maximal inhibitory concentration (IC50) was > 3000 nM.
Consider `CCOc1nc(N2CCCNCC2)ncc1C(=O)Nc1cn2cc(C)nc2c(C)n1` [Compound 103], for which the concentration for half-maximal inhibition (IC50) is 1000 to 3000 nM.
Same read-out and setting: under `CCOc1nc(N2CCNC(C)CC2)ncc1C(=O)Nc1cn2cc(C)nc2c(C)n1` (stereo not shown) [Compound 71] stands 500 to 1000 nM; under `COc1nc(N2CCNCC2)ncc1C(=O)Nc1cc(F)c2nc(C)cn2c1` [Compound 1, N-(8-fluoro-2-methylimidazo[1,2-a]pyridin-6-yl)-4-methoxy-2-(piperazin-1-yl)pyrimidine-5-carboxamide, HCl], 1000 to 3000 nM.
The same measure, in the same setting: as for `CCOc1nc(N(C)CC2CCCN2)ncc1C(=O)Nc1cc(F)c2nc(C)cn2c1` (stereo not shown) [Compound 200], the figure is 1000 to 3000 nM; as for `CCOc1nc(N2CC34CCCCC3(CNC4)C2)ncc1C(=O)Nc1cc(F)c2nc(C)cn2c1` (stereo not shown) [Compound 166], 1000 to 3000 nM; as for `CCOc1nc(N2CCNC3(CC3)C2)ncc1C(=O)Nc1cc(F)c2nn(C)cc2c1` [Compound 299, 4-ethoxy-N-(7-fluoro-2-methyl-2H-indazol-5-yl)-2-(4,7-diazaspiro[2.5]octan-7-yl)pyrimidine-5-carboxamide formate], > 3000 nM.
On to `CCOc1nc(N(C)C2CCNCC2)ncc1C(=O)Nc1cn2cc(C)nc2cn1` [Compound 256, 4-ethoxy-2-(methyl(piperidin-4-yl)amino)-N-(2-methylimidazo[1,2-a]pyrazin-6-yl)pyrimidine-5-carboxamide], for which the IC50 is < 500 nM.
As for `CCOc1nc(N2CCCC2CNC)ncc1C(=O)Nc1cc(F)c2nc(C)cn2c1` (stereo not shown) [Compound 188], the IC50 lay in the range of 1000 to 3000 nM.
`CCOc1nc(N2CC[C@@H]3CNC[C@@H]3CC2)ncc1C(=O)Nc1cc(F)c2nc(C)cn2c1` [Compound 181]: the IC50 fell in the range of 1000 to 3000 nM.
Turning to `CCOc1nc(N2C[C@H]3CNCC[C@H]32)ncc1C(=O)Nc1cn2cc(C)nc2c(C)n1` (racemic) [Compound 95], the half-inhibitory concentration (IC50) was < 500 nM.
For `CCNC1COC2(C1)CN(c1ncc(C(=O)Nc3cn4cc(C)nc4c(C)n3)c(OCC)n1)C2` (stereo not shown) [Compound 45], the 50% inhibitory concentration (IC50) was > 3000 nM.
For the compound `CCOc1nc(N2CC3(CNC3)C2)ncc1C(=O)Nc1cn2cc(C)nc2c(C)n1` [Compound 18, 2-{2,6-diazaspiro[3.3]heptan-2-yl}-N-{2,8-dimethylimidazo[1,2-a]pyrazin-6-yl}-4-ethoxypyrimidine-5-carboxamide], the IC50 is < 500 nM.

Still in this experiment, the particulars now being: Homo sapiens, HEK293, read-out: PMS1 IC50 (nM).
For the compound `CCOc1nc(N2CCNCC2)ncc1C(=O)Nc1cc(F)c2nc(C)cn2c1` [Compound 2, 4-ethoxy-N-{8-fluoro-2-methylimidazo[1,2-a]pyridin-6-yl}-2-(piperazin-1-yl)pyrimidine-5-carboxamide], the concentration for half-maximal inhibition (IC50) was < 500 nM.

Staying with this experiment, now noted: Homo sapiens; at 5 μM; PMS1 mini-gene firefly luciferase reporter in HEK293 cells; read-out: PMS1% Effect at 5 μM.
Consider `CCOc1nc(N2CC(C3CCNC3)C2)ncc1C(=O)Nc1cn2cc(C)nc2c(C)n1` (stereo not shown) [Compound 69], for which the activation at 5 µM lay in the range of 50 to 75%.

Broadly, the IC50 is the concentration at which inhibition is half-maximal.
